Measured values: patent publication US9255295B2, “Method for evaluating the sensitizing potential of a test compound” (IMMUNOSEARCH, priority 2010, dated 2016)

System: genes specific for sensitization (BRAK, CTSS, DAPK2, FABP4, HSP27, IL18, HSP90, IL1R2, TPSAB1, CXCR1, DEFB1, DHFR, EHF, IVL, KRT4, MELANA, NGAL, PDZK1IP1, PI3 …)
Test: Expression of the other (non-ARE) sensitization-specific genes in EPISKIN reconstructed skin (quantitative RT-PCR)
Assay type: cell-based, human
Details: for BRAK expression / DHFR expression / HSP90 expression / IL18 expression / KRT4 expression / MELANA expression / PDZK1iP1 expression / SERPINB3 expression: compared to the control

Q: `CC=Cc1ccc(O)c(OC)c1` [Isoeugenol] was tested. Which “BRAK NUMBER OF GENES grade” value (0.1%) did it give?
A: 0 (if this expression is lower, the grade is 0)

Q: And the “CTSS expression compared to control” value (0.1%)?
A: 0.9

Q: What about the “CTSS grade (NUMBER OF GENES)” value (0.1%) of the same compound?
A: 0 (if this expression is lower, the grade is 0)

Q: And the “CXCR1 expression compared to control” value (0.1%)?
A: 0.7

Q: And the “CXCR1 grade (NUMBER OF GENES)” value (0.1%)?
A: 0 (if this expression is lower, the grade is 0)

Q: And the “DAPK2 expression compared to control” value (0.1%)?
A: 1.1

Q: And the “DAPK2 grade (NUMBER OF GENES)” value (0.1%)?
A: 0 (if this expression is lower, the grade is 0)

Q: And the “DEFB1 expression compared to control” value (0.1%)?
A: 1.0

Q: What about the “DEFB1 grade (NUMBER OF GENES)” value (0.1%) of the same compound?
A: 0 (if this expression is lower, the grade is 0)

Q: And the “DHFR NUMBER OF GENES grade” value (0.1%)?
A: 0 (if this expression is lower, the grade is 0)

Q: What about the “EHF expression compared to control” value (0.1%) of the same compound?
A: 1.5

Q: And the “EHF grade (NUMBER OF GENES)” value (0.1%)?
A: 1 (If the expression is greater than 1.3 compared to the control, a grade of 11s given)

Q: What about the “FABP4 expression compared to control” value (0.1%) of the same compound?
A: 0.8

Q: And the “FABP4 grade (NUMBER OF GENES)” value (0.1%)?
A: 0 (if this expression is lower, the grade is 0)

Q: And the “HSP27 expression compared to control” value (0.1%)?
A: 1.0

Q: What about the “HSP27 grade (NUMBER OF GENES)” value (0.1%) of the same compound?
A: 0 (if this expression is lower, the grade is 0)

Q: What about the “HSP90 NUMBER OF GENES grade” value (0.1%) of the same compound?
A: 0 (if this expression is lower, the grade is 0)

Q: What about the “IL18 NUMBER OF GENES grade” value (0.1%) of the same compound?
A: 0 (if this expression is lower, the grade is 0)

Q: What about the “IVL expression compared to control” value (0.1%) of the same compound?
A: 1.3

Q: And the “IVL grade (NUMBER OF GENES)” value (0.1%)?
A: 1 (If the expression is greater than 1.3 compared to the control, a grade of 11s given)

Q: And the “KRT4 NUMBER OF GENES grade” value (0.1%)?
A: 0 (if this expression is lower, the grade is 0)

Q: And the “MELANA NUMBER OF GENES grade” value (0.1%)?
A: 0 (if this expression is lower, the grade is 0)

Q: And the “NGAL expression compared to control” value (0.1%)?
A: 1.1

Q: What about the “NGAL grade (NUMBER OF GENES)” value (0.1%) of the same compound?
A: 0 (if this expression is lower, the grade is 0)

Q: And the “P13 expression compared to control” value (0.1%)?
A: 1.1

Q: What about the “P13 grade (NUMBER OF GENES)” value (0.1%) of the same compound?
A: 0 (if this expression is lower, the grade is 0)

Q: What about the “PDZK1iP1 NUMBER OF GENES grade” value (0.1%) of the same compound?
A: 0 (if this expression is lower, the grade is 0)

Q: And the “SENS >1.3 (number of genes)” value (0.1%)?
A: 2

Q: And the “SERPINB3 NUMBER OF GENES grade” value (0.1%)?
A: 0 (if this expression is lower, the grade is 0)

Q: And the “TOTAL SENS (number of genes)” value (0.1%)?
A: 2

Q: And the BRAK expression (0.1%)?
A: 0.6

Q: What about the DHFR expression (0.1%) of the same compound?
A: 0.8

Q: What about the HSP90 expression (0.1%) of the same compound?
A: 0.9

Q: And the IL18 expression (0.1%)?
A: 0.6

Q: What about the KRT4 expression (0.1%) of the same compound?
A: 1.2

Q: And the MELANA expression (0.1%)?
A: 0.9

Q: And the PDZK1iP1 expression (0.1%)?
A: 1.0

Q: And the SERPINB3 expression (0.1%)?
A: 1.2

Q: And the “BRAK NUMBER OF GENES grade” value (1%)?
A: 0 (if this expression is lower, the grade is 0)

Q: What about the “CTSS expression compared to control” value (1%) of the same compound?
A: 0.8

Q: And the “CTSS grade (NUMBER OF GENES)” value (1%)?
A: 0 (if this expression is lower, the grade is 0)

Q: And the “CXCR1 expression compared to control” value (1%)?
A: 1.1

Q: What about the “CXCR1 grade (NUMBER OF GENES)” value (1%) of the same compound?
A: 0 (if this expression is lower, the grade is 0)

Q: And the “DAPK2 expression compared to control” value (1%)?
A: 0.9

Q: And the “DAPK2 grade (NUMBER OF GENES)” value (1%)?
A: 0 (if this expression is lower, the grade is 0)

Q: What about the “DEFB1 expression compared to control” value (1%) of the same compound?
A: 1.1

Q: And the “DEFB1 grade (NUMBER OF GENES)” value (1%)?
A: 0 (if this expression is lower, the grade is 0)

Q: What about the “DHFR NUMBER OF GENES grade” value (1%) of the same compound?
A: 0 (if this expression is lower, the grade is 0)

Q: And the “EHF expression compared to control” value (1%)?
A: 1.2

Q: What about the “EHF grade (NUMBER OF GENES)” value (1%) of the same compound?
A: 0 (if this expression is lower, the grade is 0)

Q: And the “FABP4 expression compared to control” value (1%)?
A: 0.9

Q: What about the “FABP4 grade (NUMBER OF GENES)” value (1%) of the same compound?
A: 0 (if this expression is lower, the grade is 0)

Q: And the “HSP27 expression compared to control” value (1%)?
A: 0.8

Q: What about the “HSP27 grade (NUMBER OF GENES)” value (1%) of the same compound?
A: 0 (if this expression is lower, the grade is 0)

Q: And the “HSP90 NUMBER OF GENES grade” value (1%)?
A: 1 (If the expression is greater than 1.3 compared to the control, a grade of 11s given)

Q: And the “IL18 NUMBER OF GENES grade” value (1%)?
A: 0 (if this expression is lower, the grade is 0)

Q: And the “IVL expression compared to control” value (1%)?
A: 1.4

Q: And the “IVL grade (NUMBER OF GENES)” value (1%)?
A: 1 (If the expression is greater than 1.3 compared to the control, a grade of 11s given)

Q: And the “KRT4 NUMBER OF GENES grade” value (1%)?
A: 0 (if this expression is lower, the grade is 0)

Q: And the “MELANA NUMBER OF GENES grade” value (1%)?
A: 1 (If the expression is greater than 1.3 compared to the control, a grade of 11s given)

Q: And the “NGAL expression compared to control” value (1%)?
A: 1.1

Q: What about the “NGAL grade (NUMBER OF GENES)” value (1%) of the same compound?
A: 0 (if this expression is lower, the grade is 0)

Q: What about the “P13 expression compared to control” value (1%) of the same compound?
A: 0.9

Q: And the “P13 grade (NUMBER OF GENES)” value (1%)?
A: 0 (if this expression is lower, the grade is 0)

Q: What about the “PDZK1iP1 NUMBER OF GENES grade” value (1%) of the same compound?
A: 0 (if this expression is lower, the grade is 0)

Q: What about the “SENS >1.3 (number of genes)” value (1%) of the same compound?
A: 5

Q: And the “SERPINB3 NUMBER OF GENES grade” value (1%)?
A: 0 (if this expression is lower, the grade is 0)

Q: What about the “TOTAL SENS (number of genes)” value (1%) of the same compound?
A: 5

Q: What about the BRAK expression (1%) of the same compound?
A: 0.9

Q: What about the DHFR expression (1%) of the same compound?
A: 0.9

Q: What about the HSP90 expression (1%) of the same compound?
A: 1.3

Q: And the IL18 expression (1%)?
A: 1.1

Q: What about the KRT4 expression (1%) of the same compound?
A: 0.8

Q: What about the MELANA expression (1%) of the same compound?
A: 1.4

Q: And the PDZK1iP1 expression (1%)?
A: 1.1

Q: What about the SERPINB3 expression (1%) of the same compound?
A: 1.2

Q: And the “BRAK NUMBER OF GENES grade” value (10%)?
A: 0 (if this expression is lower, the grade is 0)

Q: What about the “CTSS expression compared to control” value (10%) of the same compound?
A: 1.5
